Experimental data: ChEMBL document CHEMBL1128355, “Benzophenone derivatives: a novel series of potent and selective inhibitors of human immunodeficiency virus type 1 reverse transcriptase” (J Med Chem, 1995)
In brackets after ≈: the same amount, converted by molar mass.

Assays:
C8166 [1] = experiment: Inhibitory activity against P24 antigen formation in infected C8166 cells; format: functional, cell-based; conditions: Homo sapiens
[2] = molecular target: Human immunodeficiency virus type 1 reverse transcriptase (Human immunodeficiency virus 1, UniProt Q72547); experiment: Inhibitory activity against HIV-1 reverse transcriptase
C8166 [3] = experiment: Inhibitory activity against syncytia formation in infected C8166 cells; format: functional, cell-based; conditions: Homo sapiens
[4] = Half life period in mouse serum; format: ADME, organism-based
[5] = Half life period in mouse S9 liver preparation; format: ADME; conditions: liver S9 fraction
[6] = test system: Human immunodeficiency virus 1; experiment: Antiviral activity against HIV-1 (strain RF) infected MT-4 cells; format: functional, organism-based; conditions: Human immunodeficiency virus 1, MT4
[7] = Toxicity against uninfected MT-4 cells; format: cell-based, MT4; conditions: human
MT4 [8] = experiment: Cytotoxicity against uninfected MT-4 cells; format: functional, cell-based, Homo sapiens
MT4 [9] = experiment: Antiviral activity against HIV-1 resistant to 2-(2-Benzoyl-4-chloro-phenyl)-N-[4-(3-dimethylamino-propoxy)-2-methyl-phenyl]-acetamide in MT-4 cells; format: functional, cell-based; conditions: Homo sapiens
[10] = Homo sapiens, MT4, read-out: IC50

Row | SMILES | IC50 (C8166 [1]) [mg/L] | IC50 [2] [µM] | IC50 (C8166 [3]) [mg/L] | half-life [4] [h] | half-life [5] [h] | IC50 [6] [mg/L] | IC50 [7] [mg/L] | IC50 (MT4 [8]; [10]) [mg/L] | IC50 (MT4 [9]) [mg/L] | IC50 (MT4 [8]; mt4) [mg/L]
1 | c1nc2cnncc2[nH]1 | – | – | – | – | – | 0.004 (≈ 0.0333 µM) | – | > 1 | 0.5 (≈ 4.16 µM) | –
2 | CCN(CC)CCOc1ccc(NC(=O)COc2ccccc2C(=O)c2ccccc2)cc1 | 0.0015 (≈ 0.00336 µM) | 5.15 | 0.005 (≈ 0.0112 µM) | – | – | < 0.001 | > 0.5 | – | – | –
3 | Cc1cc(OCCCN(C)C)cc(C)c1NC(=O)Cc1ccc(Cl)cc1C(=O)c1ccccc1 | – | > 104 | – | – | – | – | – | – | – | –
4 | CN(C)CCCOc1ccc(NC(=O)Cc2ccc(Cl)cc2C(=O)c2ccccc2)cc1 | – | 0.443 | – | – | – | 0.21 (≈ 0.466 µM) | 10 (≈ 22.2 µM) | – | – | –
5 | Nc1ccn([C@@H]2CS[C@H](CO)O2)c(=O)n1 [LAMIVUDINE] | – | – | – | – | – | 0.043 (≈ 0.188 µM) | – | > 100 | 0.048 (≈ 0.209 µM) | –
6 | Cc1cc(OCCCN(C)C)ccc1NC(=O)Cc1ccc(Cl)cc1C(=O)c1ccccc1 | 0.0029 (≈ 0.00624 µM) | 0.753 | 0.016 (≈ 0.0344 µM) | 4.75 | 1.8 | 0.0044 (≈ 0.00946 µM) | > 0.5 | – | – | –
7 | CCN(CC)CCOc1ccc(NC(=O)COc2cc(OC)ccc2C(=O)c2ccccc2)cc1 | 0.013 (≈ 0.0273 µM) | 13.2 | 0.05 (≈ 0.105 µM) | – | – | < 0.01 | 5 (≈ 10.5 µM) | – | – | –
8 | CC(C)(C)NC(=O)[C@@H]1C[C@@H]2CCCC[C@@H]2CN1C[C@@H](O)[C@H](Cc1ccccc1)NC(=O)[C@H](CC(N)=O)NC(=O)c1ccc2ccccc2n1 [SAQUINAVIR] | – | – | – | – | – | 0.028 (≈ 0.0417 µM) | – | > 1 | 0.0038 (≈ 0.00566 µM) | –
9 | Cc1ccnc2c1NC(=O)c1cccnc1N2C1CC1 [NEVIRAPINE] | – | – | – | – | – | 0.01 (≈ 0.0376 µM) | – | > 10 | 0.22 (≈ 0.826 µM) | –
10 | CCc1cc(NCc2nc3c(Cl)ccc(Cl)c3o2)c(O)nc1C [L-697661] | – | – | – | – | – | 0.0017 (≈ 0.00483 µM) | – | 100 (≈ 284 µM) | 0.0023 (≈ 0.00653 µM) | 100 (≈ 284 µM)
11 | Cc1cc(OCCCN(C)C)ccc1NC(=O)c1ccc(Cl)cc1C(=O)c1ccccc1 | – | > 222 | – | – | – | – | – | – | – | –
12 | CCN(CC)CCOc1ccc(NC(=O)COc2ccccc2C(=O)c2ccc(F)cc2)cc1 | < 0.05 | 21.5 | 0.016 (≈ 0.0344 µM) | – | – | 0.75 (≈ 1.61 µM) | > 0.5 | – | – | –
13 | O=C(c1ccccc1)c1cc(Cl)ccc1OCc1nc2ccccc2[nH]1 | 0.032 (≈ 0.0882 µM) | 1.41 | 0.052 (≈ 0.143 µM) | > 6 | > 6 | 0.31 (≈ 0.854 µM) | > 0.5 | – | – | –
14 | CCc1cc(OCCCN(C)C)ccc1NC(=O)Cc1ccc(Cl)cc1C(=O)c1ccccc1 | – | 5.22 | – | – | – | 0.21 (≈ 0.438 µM) | 10 (≈ 20.9 µM) | – | – | –
15 | CCN(CC)CCOc1ccc(NC(=O)COc2ccccc2C(=O)c2ccc(OC)cc2)cc1 | 0.18 (≈ 0.378 µM) | 14.3 | 0.34 (≈ 0.713 µM) | – | – | 0.44 (≈ 0.923 µM) | 5 (≈ 10.5 µM) | – | – | –

The next lines start with results.

Row | IC50 (C8166 [1]) [mg/L] | IC50 [2] [µM] | IC50 (C8166 [3]) [mg/L] | half-life [4] [h] | half-life [5] [h] | IC50 [6] [mg/L] | SMILES | IC50 [7] [mg/L] | IC50 (MT4 [8]; [10]) [mg/L] | IC50 (MT4 [9]) [mg/L] | IC50 (MT4 [8]; mt4) [mg/L]
16 | 0.0012 (≈ 0.00328 µM) | 0.0273 | 0.0002 (≈ 0.000547 µM) | < 0.25 | < 0.25 | 0.0004 (≈ 0.00109 µM) | O=C(COc1ccc(Cl)cc1C(=O)c1ccccc1)Nc1ccccc1 | > 0.005 | – | – | –
17 | – | 39 | – | – | – | – | O=C(COc1ccc(Cl)cc1C(=O)c1ccccc1)NC1CCCCC1 | – | – | – | –
18 | – | > 250 | – | – | – | – | O=C(COc1ccc(Cl)c(Cl)c1C(=O)c1ccccc1)Nc1ccccc1 | – | – | – | –
19 | – | > 250 | – | – | – | – | O=C(COc1c(Cl)cc(Cl)cc1C(=O)c1ccccc1)Nc1ccccc1 | – | – | – | –
20 | < 0.0005 | 0.208 | 0.0009 (≈ 0.00193 µM) | < 0.25 | > 2 | < 0.01 | CN(C)CCCOc1ccc(NC(=O)COc2ccc(Cl)cc2C(=O)c2ccccc2)cc1 | > 0.5 | – | – | –
21 | – | > 284 | – | – | – | – | O=C(c1ccccc1)c1cc(Cl)ccc1OCCNc1ccccc1 | – | – | – | –
22 | – | 5.03 | – | – | – | 0.22 (≈ 0.615 µM) | O=C(COc1ccc(Cl)cc1C(=O)C1CCCC1)Nc1ccccc1 | > 100 | – | – | –
23 | > 5 | 0.162 | > 50 | < 0.25 | 3.5 | 0.7 (≈ 1.8 µM) | O=C(COc1ccc(Cl)cc1C(=O)c1ccccc1)c1cc2ccccc2[nH]1 | 10 (≈ 25.7 µM) | – | – | –
24 | – | > 25.2 | – | – | – | > 10 | O=C(COc1ccc(-n2ccnc2)cc1C(=O)c1ccccc1)Nc1ccccc1 | 10 (≈ 25.2 µM) | – | – | –
25 | 0.016 (≈ 0.0394 µM) | 0.0148 | 0.011 (≈ 0.0271 µM) | 1.2 | 2.8 | 0.014 (≈ 0.0345 µM) | O=C(c1ccccc1)c1cc(Cl)ccc1OCC(=O)N1CCc2ccccc2C1 | > 0.5 | – | – | –
26 | – | > 272 | – | – | – | – | O=C(COc1ccc(Cl)cc1C(O)c1ccccc1)Nc1ccccc1 (configuration not stated) | – | – | – | –
27 | – | > 287 | – | – | – | – | O=C(c1ccccc1)c1cc(Cl)ccc1OC/C=C/c1ccccc1 | – | – | – | –
28 | 0.032 (≈ 0.0812 µM) | 6.35 | 0.05 (≈ 0.127 µM) | 2.8 | > 6 | 0.028 (≈ 0.0711 µM) | Cc1ccccc1CNC(=O)COc1ccc(Cl)cc1C(=O)c1ccccc1 | 10 (≈ 25.4 µM) | – | – | –
29 | – | 0.936 | – | – | – | > 10 | CCN(CC)CCOc1ccc(NC(=O)COc2ccc(Cl)cc2C(=O)c2ccccc2)cc1 | 10 (≈ 20.8 µM) | – | – | –
30 | – | 0.436 | – | – | – | < 0.01 | O=C(COc1ccc(Cl)cc1C(=O)c1cccnc1)Nc1ccccc1 | 10 (≈ 27.3 µM) | – | – | –
31 | – | 32.9 | – | – | – | > 100 | O=C(COc1ccc(Cl)cc1C(=O)c1ccccc1)Cc1ccccc1 | > 100 | – | – | –
32 | 0.006 (≈ 0.0172 µM) | 0.00859 | 0.014 (≈ 0.0401 µM) | – | – | 0.09 (≈ 0.258 µM) | O=C(COc1ccc(F)cc1C(=O)c1ccccc1)Nc1ccccc1 | 10 (≈ 28.6 µM) | – | – | –
33 | – | 0.035 | – | – | – | 0.023 (≈ 0.0575 µM) | O=C(COc1cc(Cl)c(Cl)cc1C(=O)c1ccccc1)Nc1ccccc1 | 100 (≈ 250 µM) | – | – | –
